Measured values reported in patent publication US10167262B2, “Herbicidal substituted 3-arylpyrazoles” (FMC CORPORATION, priority 2014, dated 2019).

Experiments:
Test in all cases: Test C postemergence greenhouse test, plant response rating 0-100
Format in all cases: in vivo
[1] = test system: bermudagrass (Cynodon dactylon); settings: for Plant response rating, Bermudagrass: scale 0 to 100
How it was run: (§1)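 First, plants were raised in a sphagnum peat, vermiculite and nutrient medium to 1–4 leaves. Next, formulated test compounds were applied over the foliage. Finally, after 13–15 greenhouse days, injury was compared with controls and scored 0–100.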

[2] = test system: canarygrass (Phalaris minor); settings: for Plant response rating, Canarygrass: scale 0 to 100
How it was run: as §1

[3] = test system: cocklebur (common cocklebur, Xanthium strumarium); settings: for Plant response rating, Cocklebur: scale 0 to 100
How it was run: as §1

[4] = test system: deadnettle (henbit deadnettle, Lamium amplexicaule); settings: for Plant response rating, Deadnettle: scale 0 to 100
How it was run: as §1

[5] = test system: downy bromegrass (Bromus tectorum); settings: for Plant response rating, Bromegrass, Downy: scale 0 to 100
How it was run: as §1

[6] = test system: goosegrass (Eleusine indica); settings: for Plant response rating, Goosegrass: scale 0 to 100
How it was run: as §1

[7] = test system: green foxtail (Setaria viridis); settings: for Plant response rating, Foxtail, Green: scale 0 to 100
How it was run: as §1

[8] = test system: surinam grass (Brachiaria decumbens); settings: for Plant response rating, Surinam Grass: scale 0 to 100
How it was run: as §1

[9] = test system: windgrass (Apera spica-venti); settings: for Plant response rating, Windgrass: scale 0 to 100
How it was run: as §1

[10] = test system: winter barley (Hordeum vulgare); settings: for Plant response rating, Barley: scale 0 to 100
How it was run: as §1

[11] = test system: woolly cupgrass (Eriochloa villosa); settings: for Plant response rating, Cupgrass, Woolly: scale 0 to 100
How it was run: as §1

CCn1cc(C(=NN2CCCC2)c2ccccc2)c(-c2cc(Cl)cc(Cl)c2)n1 [Compound 37]
Plant response rating (0 to 100), Bermudagrass ([1]; 31 g ai/ha): 0
Plant response rating (0 to 100), Bermudagrass ([1]; 62 g ai/ha): 0
Plant response rating (0 to 100), Bermudagrass ([1]; 125 g ai/ha): 0
Plant response rating, Bermudagrass ([1]; 250 g ai/ha): 0
Plant response rating (0 to 100), Canarygrass ([2]; 31 g ai/ha): 0
Plant response rating (0 to 100), Canarygrass ([2]; 62 g ai/ha): 0
Plant response rating (0 to 100), Canarygrass ([2]; 125 g ai/ha): 0
Plant response rating, Canarygrass ([2]; 250 g ai/ha): 0
Plant response rating (0 to 100), Cocklebur ([3]; 31 g ai/ha): 5
Plant response rating (0 to 100), Cocklebur ([3]; 62 g ai/ha): 10
Plant response rating (0 to 100), Cocklebur ([3]; 125 g ai/ha): 15
Plant response rating, Cocklebur ([3]; 250 g ai/ha): 20
Plant response rating (0 to 100), Deadnettle ([4]; 31 g ai/ha): 0
Plant response rating (0 to 100), Deadnettle ([4]; 62 g ai/ha): 0
Plant response rating (0 to 100), Deadnettle ([4]; 125 g ai/ha): 0
Plant response rating, Deadnettle ([4]; 250 g ai/ha): 0
Plant response rating (0 to 100), Bromegrass, Downy ([5]; 31 g ai/ha): 0
Plant response rating (0 to 100), Bromegrass, Downy ([5]; 62 g ai/ha): 0
Plant response rating (0 to 100), Bromegrass, Downy ([5]; 125 g ai/ha): 0
Plant response rating, Bromegrass, Downy ([5]; 250 g ai/ha): 0
Plant response rating (0 to 100), Goosegrass ([6]; 31 g ai/ha): 0
Plant response rating (0 to 100), Goosegrass ([6]; 62 g ai/ha): 0
Plant response rating (0 to 100), Goosegrass ([6]; 125 g ai/ha): 0
Plant response rating, Goosegrass ([6]; 250 g ai/ha): 0
Plant response rating (0 to 100), Foxtail, Green ([7]; 31 g ai/ha): 0
Plant response rating (0 to 100), Foxtail, Green ([7]; 62 g ai/ha): 0
Plant response rating (0 to 100), Foxtail, Green ([7]; 125 g ai/ha): 0
Plant response rating, Foxtail, Green ([7]; 250 g ai/ha): 0
Plant response rating (0 to 100), Surinam Grass ([8]; 62 g ai/ha): 0
Plant response rating (0 to 100), Surinam Grass ([8]; 125 g ai/ha): 0
Plant response rating, Surinam Grass ([8]; 250 g ai/ha): 0
Plant response rating (0 to 100), Windgrass ([9]; 62 g ai/ha): 0
Plant response rating (0 to 100), Windgrass ([9]; 125 g ai/ha): 0
Plant response rating, Windgrass ([9]; 250 g ai/ha): 0
Plant response rating (0 to 100), Barley ([10]; 31 g ai/ha): 0
Plant response rating (0 to 100), Barley ([10]; 62 g ai/ha): 0
Plant response rating (0 to 100), Barley ([10]; 125 g ai/ha): 0
Plant response rating, Barley ([10]; 250 g ai/ha): 0
Plant response rating (0 to 100), Cupgrass, Woolly ([11]; 31 g ai/ha): 5
Plant response rating (0 to 100), Cupgrass, Woolly ([11]; 62 g ai/ha): 5
Plant response rating (0 to 100), Cupgrass, Woolly ([11]; 125 g ai/ha): 5
Plant response rating, Cupgrass, Woolly ([11]; 250 g ai/ha): 5

Fc1ccc(NN=C(c2ccccc2)c2c[nH]nc2-c2cc(Cl)cc(Cl)c2)cc1 [Compound 35]
Plant response rating (0 to 100), Bermudagrass ([1]; 62 g ai/ha): 0
Plant response rating (0 to 100), Bermudagrass ([1]; 125 g ai/ha): 0
Plant response rating, Bermudagrass ([1]; 250 g ai/ha): 0
Plant response rating, Bermudagrass ([1]; 500 g ai/ha): 0
Plant response rating (0 to 100), Canarygrass ([2]; 62 g ai/ha): 0
Plant response rating (0 to 100), Canarygrass ([2]; 125 g ai/ha): 0
Plant response rating, Canarygrass ([2]; 250 g ai/ha): 0
Plant response rating, Canarygrass ([2]; 500 g ai/ha): 0
Plant response rating (0 to 100), Cocklebur ([3]; 62 g ai/ha): 60
Plant response rating (0 to 100), Cocklebur ([3]; 125 g ai/ha): 60
Plant response rating, Cocklebur ([3]; 250 g ai/ha): 75
Plant response rating, Cocklebur ([3]; 500 g ai/ha): 75
Plant response rating (0 to 100), Deadnettle ([4]; 62 g ai/ha): 0
Plant response rating (0 to 100), Deadnettle ([4]; 125 g ai/ha): 0
Plant response rating, Deadnettle ([4]; 250 g ai/ha): 0
Plant response rating, Deadnettle ([4]; 500 g ai/ha): 0
Plant response rating (0 to 100), Bromegrass, Downy ([5]; 62 g ai/ha): 0
Plant response rating (0 to 100), Bromegrass, Downy ([5]; 125 g ai/ha): 0
Plant response rating, Bromegrass, Downy ([5]; 250 g ai/ha): 0
Plant response rating, Bromegrass, Downy ([5]; 500 g ai/ha): 0
Plant response rating (0 to 100), Goosegrass ([6]; 62 g ai/ha): 0
Plant response rating (0 to 100), Goosegrass ([6]; 125 g ai/ha): 0
Plant response rating, Goosegrass ([6]; 250 g ai/ha): 0
Plant response rating, Goosegrass ([6]; 500 g ai/ha): 0
Plant response rating (0 to 100), Foxtail, Green ([7]; 62 g ai/ha): 0
Plant response rating (0 to 100), Foxtail, Green ([7]; 125 g ai/ha): 0
Plant response rating, Foxtail, Green ([7]; 250 g ai/ha): 0
Plant response rating, Foxtail, Green ([7]; 500 g ai/ha): 20
Plant response rating (0 to 100), Surinam Grass ([8]; 62 g ai/ha): 0
Plant response rating (0 to 100), Surinam Grass ([8]; 125 g ai/ha): 0
Plant response rating, Surinam Grass ([8]; 250 g ai/ha): 0
Plant response rating, Surinam Grass ([8]; 500 g ai/ha): 0
Plant response rating (0 to 100), Windgrass ([9]; 62 g ai/ha): 0
Plant response rating (0 to 100), Windgrass ([9]; 125 g ai/ha): 0
Plant response rating, Windgrass ([9]; 250 g ai/ha): 0
Plant response rating, Windgrass ([9]; 500 g ai/ha): 0
Plant response rating (0 to 100), Barley ([10]; 62 g ai/ha): 0
Plant response rating (0 to 100), Barley ([10]; 125 g ai/ha): 0
Plant response rating, Barley ([10]; 250 g ai/ha): 0
Plant response rating, Barley ([10]; 500 g ai/ha): 0
Plant response rating (0 to 100), Cupgrass, Woolly ([11]; 62 g ai/ha): 5
Plant response rating (0 to 100), Cupgrass, Woolly ([11]; 125 g ai/ha): 5
Plant response rating, Cupgrass, Woolly ([11]; 250 g ai/ha): 5
Plant response rating, Cupgrass, Woolly ([11]; 500 g ai/ha): 5
